This note sets out measurements from the SangsterLogP compilation.

The logP is a log measure of how a compound divides between an organic and an aqueous phase. `O=[N+]([O-])c1ccc(N=C=S)cc1` had a lipophilicity (logP) of 3.55.
The figure for `CN(C)c1ccc(N=C=S)cc1` is 3.96; for `Cc1ccc(N=C=S)cc1` it is 3.9.
The figure for `CCC(C)N=C=S` (stereo not drawn) is 2.81; for `O=C(O)c1cccc(N=C=S)c1` it is 2.4; for `N#Cc1ccc(N=C=S)cc1` it is 2.65.
The figure for `O=C(O)c1ccc(N=C=S)cc1` is 2.44; for `S=C=Nc1ccc(I)cc1` it is 4.22.
With `CN=C=S`, the logP was found to be 0.94.
Next, `CC(C)CN=C=S`: 2.82.
As for `Oc1cccc(N=C=S)c1`, the logP amounted to 3.23.
The figure for `S=C=Nc1ccc(Cl)cc1` is 3.91.
The figure for `COc1cccc(N=C=S)c1` is 3.68.
Next, `COc1ccc(N=C=S)cc1`: 3.58; `CCCCN=C=S`: 2.92; `S=C=Nc1cccc(Br)c1`: 4.12.
Molecule `N#Cc1cccc(N=C=S)c1` displayed a logP of 3.13.
Next, `S=C=Nc1cccc(Cl)c1`: 3.36.
